The target of one data set is T1, human OCT1 (hOCT1) (Homo sapiens, UniProt O15245).
T1 construct: expressed in transfected cells
T1 sequence (O15245 1-554): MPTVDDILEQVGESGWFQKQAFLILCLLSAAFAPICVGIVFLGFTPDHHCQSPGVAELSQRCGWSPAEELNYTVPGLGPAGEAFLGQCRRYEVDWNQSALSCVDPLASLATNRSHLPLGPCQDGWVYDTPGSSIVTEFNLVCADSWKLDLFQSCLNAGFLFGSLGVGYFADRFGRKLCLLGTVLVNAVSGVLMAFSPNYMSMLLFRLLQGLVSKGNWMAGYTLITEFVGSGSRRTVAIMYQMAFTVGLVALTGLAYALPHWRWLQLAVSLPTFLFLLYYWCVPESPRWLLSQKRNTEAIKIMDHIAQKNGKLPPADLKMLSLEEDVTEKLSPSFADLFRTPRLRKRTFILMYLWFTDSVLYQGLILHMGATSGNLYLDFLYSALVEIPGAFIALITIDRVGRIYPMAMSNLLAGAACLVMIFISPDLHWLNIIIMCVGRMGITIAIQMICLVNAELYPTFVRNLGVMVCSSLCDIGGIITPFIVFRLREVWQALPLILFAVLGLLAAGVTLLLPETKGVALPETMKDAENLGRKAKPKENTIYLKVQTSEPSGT
The experiment in a line: Cellular uptake of [14C] TEA or [14C] metformin in HEK293 cells overexpressing hOCT1, with or without inhibitor. It is filed as cell-based. The settings on record: for OCT1 function (TEA transport) in presence of TKI: HEK293-hOCT1, TKI 10 µM, Figure 2D. The protocol:
(§1) Human embryonic kidney (HEK293) cells were obtained from the American Type Culture Collection (ATCC, Manassas, VA). HEK293 cells stably transfected with mouse OCT1 (mOCT1) or human OCT1 (hOCT1) were cultured in Dulbecco’s Modified Eagle Media (DMEM) media supplemented with 10% fetal bovine serum (FBS) and grown at 37°C in a humidified incubator containing 5% CO2. Radiolabeled [^14C] TEA and [^14C] metformin were obtained from American Radiochemicals (St. Louis, MO). Cellular uptake assays were performed 48 h following transient transfection by Lipofectamine 3000 Transfection Reagent (Thermo Fisher Scientific, Waltham, MA). ON-TARGETplus Human YES1 siRNA was obtained from Dharmacon (Lafayette, CO). RNA extraction kits were obtained from Omega Bio-tek (Norcross, GA).
(§2) The results were normalized to uptake values in cells stably transfected with an empty vector treated with vehicle alone (Supplementary Figure S1). Prior to cellular accumulation experiments, cells were grown to 90% confluence on poly-lysine coated multi-well plates. For uptake studies, cells were rinsed with warm PBS and incubated in the presence of a vehicle or inhibitor, prepared in serum and phenol red-free DMEM media for 15 min. Subsequently, media was removed followed by the addition of radiolabeled TEA and metformin along with inhibitor, and cellular uptake was measured after a 15-min co-incubation period. Total radioactivity originating from TEA and metformin was determined using liquid scintillation counting after lysing the cells with 1 N NaOH, a neutralizing step with 2 M HCl. A Pierce protein assay (Thermo Fisher Scientific, Waltham, MA) was used to normalize radioactivity readings to account for variation in cell number between samples.

Another data set concerns the target T2, mouse OCT1 (mOCT1) (Mus musculus, UniProt O08966).
T2 construct: expressed in transfected cells
T2 sequence (O08966 1-556): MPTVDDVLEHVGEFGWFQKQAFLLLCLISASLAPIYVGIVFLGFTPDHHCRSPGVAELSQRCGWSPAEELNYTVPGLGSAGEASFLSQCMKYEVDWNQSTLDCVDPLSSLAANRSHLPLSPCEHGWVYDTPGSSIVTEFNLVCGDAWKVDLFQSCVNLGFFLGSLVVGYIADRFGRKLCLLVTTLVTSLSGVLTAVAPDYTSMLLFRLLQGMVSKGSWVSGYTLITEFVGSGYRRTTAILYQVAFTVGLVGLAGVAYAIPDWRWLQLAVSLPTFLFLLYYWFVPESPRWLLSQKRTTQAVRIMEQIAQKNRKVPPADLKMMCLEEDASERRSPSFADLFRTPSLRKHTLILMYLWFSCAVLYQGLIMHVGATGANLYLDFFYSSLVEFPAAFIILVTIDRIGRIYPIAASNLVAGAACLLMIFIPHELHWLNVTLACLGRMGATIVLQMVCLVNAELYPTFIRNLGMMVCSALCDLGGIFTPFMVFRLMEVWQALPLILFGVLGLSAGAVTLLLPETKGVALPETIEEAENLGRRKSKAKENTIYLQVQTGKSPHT
The data set can be described thus: Cellular uptake of [14C] TEA in HEK293 cells overexpressing mOCT1, with or without inhibitor. The format is cell-based. The note with it: models overexpressing mOCT1, Supplementary Figure S4C. How it is done:
as §1
as §2, with “Uptake assays were performed with radiolabeled TEA (2 µM) or metformin (5 µM) as described previously ([Sprowl et al., 2013]; [Pabla et al., 2015]) in the presence or absence of TKIs. The results” for “The results”

Data set [1] addresses T3, OCT2 (hOCT2) (Homo sapiens, UniProt O15244).
T3 construct: expressed in transfected cells; host or cells: overexpressing cell model
T3 sequence (O15244 1-555): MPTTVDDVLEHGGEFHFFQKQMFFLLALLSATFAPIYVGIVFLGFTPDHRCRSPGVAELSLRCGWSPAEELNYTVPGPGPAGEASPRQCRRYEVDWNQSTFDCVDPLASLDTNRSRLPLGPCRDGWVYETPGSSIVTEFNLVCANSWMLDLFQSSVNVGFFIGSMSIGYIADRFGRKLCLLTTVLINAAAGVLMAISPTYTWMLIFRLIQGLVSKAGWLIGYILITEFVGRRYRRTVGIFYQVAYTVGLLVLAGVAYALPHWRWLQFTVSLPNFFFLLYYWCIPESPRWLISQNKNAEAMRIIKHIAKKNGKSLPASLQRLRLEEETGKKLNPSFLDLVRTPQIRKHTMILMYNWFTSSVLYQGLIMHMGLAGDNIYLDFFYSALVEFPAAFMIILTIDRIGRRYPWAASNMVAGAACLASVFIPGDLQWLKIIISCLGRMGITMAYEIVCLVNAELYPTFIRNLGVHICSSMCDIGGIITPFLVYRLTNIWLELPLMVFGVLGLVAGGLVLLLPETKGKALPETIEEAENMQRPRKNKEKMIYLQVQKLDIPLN
The data set can be described thus: OCT2 transport inhibition. It is filed as cell-based. The note with it: models overexpressing hOCT2, Supplementary Figure S4D. How it is done: as §2, with “Uptake assays were performed with radiolabeled TEA (2 µM) or metformin (5 µM) as described previously ([Sprowl et al., 2013]; [Pabla et al., 2015]) in the presence or absence of TKIs. The results” for “The results”

The test system of the next data set is OCT1 (mouse and human). The data set can be described thus: Dose-response OCT1 uptake inhibition, summarised across mOCT1 and hOCT1 models and test substrates. The note with it: mouse and human, probe [14C] TEA (2 µM) or [14C] metformin (5 µM); range over mOCT1/hOCT1 models and test substrates. It is filed as cell-based. The protocol:
as §1
as §2, with “Uptake assays were performed with radiolabeled TEA (2 µM) or metformin (5 µM) as described previously ([Sprowl et al., 2013]; [Pabla et al., 2015]) in the presence or absence of TKIs. The results” for “The results”

A further data set deals with OCT1. The description is as above. The format is cell-based, human and mouse. The note with it: for OCT1 inhibition: Yes/No; for OCT1 function in dose-response experiments: species-independent, regardless of test substrate. How it is done:
as §1
as §2, with “Uptake assays were performed with radiolabeled TEA (2 µM) or metformin (5 µM) as described previously ([Sprowl et al., 2013]; [Pabla et al., 2015]) in the presence or absence of TKIs. The results” for “The results”

In another data set the target is T4, OCT3 (Homo sapiens, UniProt O75751).
T4 sequence (O75751 1-556): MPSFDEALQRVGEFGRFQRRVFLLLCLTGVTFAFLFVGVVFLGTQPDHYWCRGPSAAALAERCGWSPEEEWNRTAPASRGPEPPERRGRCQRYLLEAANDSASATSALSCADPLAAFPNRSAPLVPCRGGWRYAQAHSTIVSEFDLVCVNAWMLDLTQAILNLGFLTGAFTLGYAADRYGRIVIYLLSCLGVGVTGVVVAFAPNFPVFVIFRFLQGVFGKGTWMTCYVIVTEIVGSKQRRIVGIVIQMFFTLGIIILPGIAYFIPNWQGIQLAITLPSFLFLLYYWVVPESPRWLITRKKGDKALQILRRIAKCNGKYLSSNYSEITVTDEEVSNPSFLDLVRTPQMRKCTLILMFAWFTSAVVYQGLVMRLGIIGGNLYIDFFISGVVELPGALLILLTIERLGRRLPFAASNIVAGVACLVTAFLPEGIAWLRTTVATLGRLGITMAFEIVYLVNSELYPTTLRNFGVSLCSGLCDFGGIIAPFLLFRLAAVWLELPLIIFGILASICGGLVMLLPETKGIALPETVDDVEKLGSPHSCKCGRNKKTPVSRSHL
The data set can be described thus: OCT3 transport inhibition by TKIs (Supplementary Figure S2). It is filed as cell-based. The protocol:
as §2, with “Uptake assays were performed with radiolabeled TEA (2 µM) or metformin (5 µM) as described previously ([Sprowl et al., 2013]; [Pabla et al., 2015]) in the presence or absence of TKIs. The results” for “The results”

The target of data set [2] is T3, OCT2 (hOCT2). The note with it: Yes/No; TKIs previously found to inhibit OCT2; ref Sprowl et al., 2016; cited from earlier work.
A further data set concerns the target T5, hepatic OCT1 (Mus musculus, UniProt O08966).
T5 sequence (O08966 1-556): T2 sequence (O08966 1-556)
The note with it: OCT1/2-deficient vs wild-type mice, [14C] TEA 0.2 mg/kg i.v.

In a further data set the target is YES1. The note with it: read-out: YES1 Kd; ref Klaeger et al., 2017; KINOMEscan data—HMS LINCS Project, 2020; cited from earlier work.

Molecules are shown by their SMILES. Read-outs that look alike come from different tables or passages of the source.

Protocol for hepatic OCT1: Mice were accommodated in a temperature-, and light-controlled environment with access to water and food.
TEA (0.2 mg/kg) via the caudal vein. Concentrations of total TEA-derived radioactivity in plasma and homogenized liver samples were measured by liquid scintillation counting.

As for `Cc1cc2cc(C(=O)c3cnn(-c4cnc(Oc5c(F)cccc5F)cc4C)c3N)[nH]c2cc1NS(C)(=O)=O` [CH6953755], the IC50 on human OCT1 (hOCT1) (HEK293-hOCT1, [14C] TEA 2 µM, 15 min pre-incubation + 15 min co-incubation, read-out: IC50, hOCT1-mediated transport of TEA) was 2760 nM; on human OCT1 (hOCT1) (HEK293-hOCT1, [14C] metformin 5 µM, read-out: IC50, hOCT1-mediated transport of metformin) it was 2310 nM. Also, the “inhibition of mOCT1-mediated transport” value on mouse OCT1 (mOCT1) is recorded as “also observed”. For the same molecule, the “inhibition of hOCT2-mediated transport” value against OCT2 (hOCT2) [1] was “also observed”.

On to `CCc1nc(C(N)=O)c(Nc2ccc(N3CCC(N4CCN(C)CC4)CC3)c(OC)c2)nc1NC1CCOCC1` [Gilteritinib, gilteritinib], for which the “OCT1 function (TEA transport) in presence of TKI” value (shortened to “OCT1 function (TEA transport)”) at human OCT1 (hOCT1) was “inhibit OCT1 function”. The same molecule showed a half-inhibitory concentration (IC50) at 15 min in the data set with OCT1 (mouse and human) of 10 to 20 nM. Further, in the data set on OCT1, the OCT1 inhibition result was “Yes” and the “OCT1 function in dose-response experiments” value is reported as “potently inhibited”. The “OCT3 function in presence of TKI” value at OCT3 is “no influence”. Moreover, the OCT2 inhibition entry on OCT2 (hOCT2) [2] is on record as “Yes”.

Turning to `C=CC(=O)N1CCC[C@@H](n2nc(-c3ccc(Oc4ccccc4)cc3)c3c(N)ncnc32)C1` [Ibrutinib, ibrutinib], the “OCT1 function (TEA transport)” value on human OCT1 (hOCT1) is on record as “inhibit OCT1 function”. The molecule further registered a concentration for half-maximal inhibition (IC50) at 15 min in the data set with OCT1 (mouse and human) of 890 to 1180 nM. In addition, in the data set with OCT1, the OCT1 inhibition entry is “Yes” and the “OCT1 function in dose-response experiments” value is recorded as “potently inhibited”. The “OCT3 function in presence of TKI” value at OCT3 is listed as “no influence”. Also, on OCT2 (hOCT2) [2], the OCT2 inhibition result is given as “Yes”.

`CS(=O)(=O)CCNCc1ccc(-c2ccc3ncnc(Nc4ccc(OCc5cccc(F)c5)c(Cl)c4)c3c2)o1` [Lapatinib, lapatinib]: the “OCT1 function (TEA transport)” value at human OCT1 (hOCT1) is “not”. Moreover, the OCT1 inhibition result with OCT1 is “No”. For the same molecule, at OCT2 (hOCT2) [2], the OCT2 inhibition entry is reported as “No”.

Regarding `CC[N+](CC)(CC)CC` [TEA, tetraethylammonium], on hepatic OCT1, the “hepatic uptake of TEA (liver-to-plasma concentration ratio) in OCT1/2-deficient mice” value is reported as “dramatically reduced”.

With `COc1cc2c(Nc3ccc(Br)cc3F)ncnc2cc1OCC1CCN(C)CC1` [Vandetanib, vandetanib], the “OCT1 function (TEA transport)” value on human OCT1 (hOCT1) is on record as “inhibit OCT1 function”. The IC50 at 15 min in the data set with OCT1 (mouse and human) is 1350 to 9050 nM. Further, in the data set with OCT1, the OCT1 inhibition result is listed as “Yes” and the “OCT1 function in dose-response experiments” value is given as “potently inhibited”. For the same molecule, the OCT2 inhibition entry on OCT2 (hOCT2) [2] is “Yes”. Further, on YES1, the dissociation constant (Kd) was 120 nM.

As to `COc1cc(Nc2c(C#N)cnc3cc(OCCCN4CCN(C)CC4)c(OC)cc23)c(Cl)cc1Cl` [bosutinib], on human OCT1 (hOCT1), the “OCT1 function (TEA transport)” value is “inhibit OCT1 function”. Moreover, on OCT3, the “OCT3 function in presence of TKI” value is listed as “no influence”.

`CCN(CC)CCNC(=O)c1c(C)[nH]c(/C=C2\C(=O)Nc3ccc(F)cc32)c1C` [sunitinib]: the “OCT1 function (TEA transport)” value on human OCT1 (hOCT1) is recorded as “inhibit OCT1 function”. Further, the “OCT3 function in presence of TKI” value at OCT3 was “potently inhibiting”.

Source of the values: PMC8006202, “Influence of YES1 Kinase and Tyrosine Phosphorylation on the Activity of OCT1” (Frontiers in Pharmacology, 2021).
